From the supplement of paper PMC10307832

How the values were obtained:
Test in all cases: relative viability (nuclei count vs DMSO), 5 days (fraction); higher = more cells survive
Carboplatin + Foretinib = compound: C1CC(C1)(C(=O)O)C(=O)O.[NH2-].[NH2-].[Pt+2] [Carboplatin] + COc1cc2c(Oc3ccc(NC(=O)C4(C(=O)Nc5ccc(F)cc5)CC4)cc3F)ccnc2cc1OCCCN1CCOCC1 [Foretinib] (partner 0.25 µM)
Outline: (§1)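 Lung cancer cell lines were seeded in 1536-well plates and dosed by pin tool the next day, with either a single drug or a fixed anchor-drug dose combined with five library-drug doses (not always all listed) spaced in √10 steps. Five days later, one step fixed the cells and stained their nuclei (final 0.05% Triton X-100, 1% formaldehyde, 1 ug/ml Hoechst), and nuclei were counted on 4× images. Relative viability is the nuclei count in treated wells divided by the count in vehicle wells, and each value is the median of duplicate plates.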

GSK126 + Crizotinib = compound: CC[C@H](C)N1C=C(C2=C(C=C(C=C21)C3=CN=C(C=C3)N4CCNCC4)C(=O)NCC5=C(C=C(NC5=O)C)C)C [GSK126] + C[C@@H](Oc1cc(-c2cnn(C3CCNCC3)c2)cnc1N)c1c(Cl)ccc(F)c1Cl [Crizotinib] (partner 1 µM)
Outline: as §1

GSK126 + Alpelisib = compound: CC[C@H](C)N1C=C(C2=C(C=C(C=C21)C3=CN=C(C=C3)N4CCNCC4)C(=O)NCC5=C(C=C(NC5=O)C)C)C [GSK126] + Cc1nc(NC(=O)N2CCC[C@H]2C(N)=O)sc1-c1ccnc(C(C)(C)C(F)(F)F)c1 [Alpelisib] (partner 2 µM)
Outline: as §1

GSK126 + Olaparib = compound: CC[C@H](C)N1C=C(C2=C(C=C(C=C21)C3=CN=C(C=C3)N4CCNCC4)C(=O)NCC5=C(C=C(NC5=O)C)C)C [GSK126] + O=C(c1cc(Cc2n[nH]c(=O)c3ccccc23)ccc1F)N1CCN(C(=O)C2CC2)CC1 [Olaparib] (partner 8 µM)
Outline: as §1

Cell Line UMC-11 has a relative viability (Carboplatin + Foretinib; first compound 0.08 µM) of 1.03, a relative viability (Carboplatin + Foretinib; first compound 0.253 µM) of 1.03 and a relative viability (Carboplatin + Foretinib; first compound 0.8 µM) of 1.06. For the same cell line, the relative viability (Carboplatin + Foretinib; first compound 2.53 µM) was 0.941, the relative viability (Carboplatin + Foretinib; first compound 8 µM) was 0.718 and the relative viability (GSK126 + Crizotinib; first compound 0.08 µM) was 0.723. It also gave a relative viability (GSK126 + Crizotinib; first compound 0.253 µM) of 0.689, a relative viability (GSK126 + Crizotinib; first compound 0.8 µM) of 0.604 and a relative viability (GSK126 + Crizotinib; first compound 2.53 µM) of 0.523. For the same cell line, the relative viability (GSK126 + Crizotinib; first compound 8 µM) was 0.525, the relative viability (GSK126 + Alpelisib; first compound 0.08 µM) was 1.03 and the relative viability (GSK126 + Alpelisib; first compound 0.253 µM) was 1.1. The relative viability (GSK126 + Alpelisib; first compound 0.8 µM) was 0.983, the relative viability (GSK126 + Alpelisib; first compound 2.53 µM) was 0.961 and the relative viability (GSK126 + Alpelisib; first compound 8 µM) was 1.17. The relative viability (GSK126 + Olaparib; first compound 0.08 µM) was 0.345, the relative viability (GSK126 + Olaparib; first compound 0.253 µM) was 0.364 and the relative viability (GSK126 + Olaparib; first compound 0.8 µM) was 0.394. For the same cell line, the relative viability (GSK126 + Olaparib; first compound 2.53 µM) was 0.376 and the relative viability (GSK126 + Olaparib; first compound 8 µM) was 0.361.
